Assay results taken from patent US7146278B2, “Method of selecting marker molecules for prediction of molecular activity” (Accelrys Software Inc., priority 2001, dated 2006).
Where two headings read alike, the source gives them in different places.

How the values were obtained:
[1] = tested on: serum proteins; conditions: cited from earlier work; for % PB: marker molecules, training set from Goodman & Gilman 9th ed.
[2] = tested on: serum proteins; test: Percent protein bound in serum (literature % PB data); conditions: binary class: highly protein bound (DTC) or not
Text: Drugs may bind to a variety of components in the blood, including albumin, a1-acid glyciprotein (AAG), lipoproteins, immunoglobulins, sex hormone binding globulins, and erythrocytes. […] Some foreknowledge of the protein binding characteristics of a molecule would help provide a better estimate of the pharmacodynamics and pharmacokinetics of the molecule. […] In addition, hepatic extraction is directly proportional to fu. […] The maximum oral bioavailability is directly related to the hepatic extraction ratio, which is in part dependent upon the fu. Disease states causing significant drop in serum albumin, e.g. nephrotic syndrome, where serum albumin concentrations are halved, cause a corresponding 2-fold decrease in half-life for clofibrate.
Using the principles of predictive model development described herein, a model for classifying compounds as highly protein bound (>90% bound) or not highly protein bound (<90% bound) was created. The model development methods are thus described below using a protein binding model as one example application. The model development methods of the invention may also be applied to the creation of other prediction models, such as models to predict CYP450 metabolism, inhibition, and activation, as well as p-Glycoprotein efflux.
The method next advances to the process block 14 where a reference (“training”) set of molecules is classified according to the property of interest. The larger the training set of molecules is (>50 preferably), the better the method should perform. Preferably each of the molecules in the training set has a known binary classification for the property of interest. […] For illustration, an example training set of ten molecules for a protein binding prediction model may be as follows:
The method next advances to a process block 16, where a subset of the training set of molecules is chosen such that the subset includes the molecules in the training set that have the desired property of interest. In one embodiment, molecules in this subset are referred to as Desired Target Class (“DTC”) molecules.
The above simplified example includes 10 training dataset molecules. […] The following compounds were excluded because they lacked % PB values or belonged to an unusual structural class: atracurium, auranofin, azathioprine, bleomycin, bretylium, busulfan, capreomycin, carboplatin, carmustine, cisplatin, clemastine, dobutamine, enoxacin, ethanol, foscarnet, gold sodium thiomalate, isosorbide-5-mononitrate, isosorbide dinitrate, levodopa, levonorgestrel, methohexital, methylprednisolone, nalbuphine, naloxone, neostigmine, nitroglycerin, pancuronium, pipecuronium, prednisolone, prednisone, pyridostigmine, scopolamine, tubocurarine, vecuronium.
A test dataset was also assembled to verify model performance.

[3] = nephrotic syndrome, serum albumin concentrations halved; cited from earlier work
[4] = biological target: Human serum albumin (HSA) (Homo sapiens, UniProt P02768); conditions: site I warfarin site, site II benzodiazepines/NSAIDS site; cited from earlier work
Chain of Human serum albumin (HSA) (P02768 25-609): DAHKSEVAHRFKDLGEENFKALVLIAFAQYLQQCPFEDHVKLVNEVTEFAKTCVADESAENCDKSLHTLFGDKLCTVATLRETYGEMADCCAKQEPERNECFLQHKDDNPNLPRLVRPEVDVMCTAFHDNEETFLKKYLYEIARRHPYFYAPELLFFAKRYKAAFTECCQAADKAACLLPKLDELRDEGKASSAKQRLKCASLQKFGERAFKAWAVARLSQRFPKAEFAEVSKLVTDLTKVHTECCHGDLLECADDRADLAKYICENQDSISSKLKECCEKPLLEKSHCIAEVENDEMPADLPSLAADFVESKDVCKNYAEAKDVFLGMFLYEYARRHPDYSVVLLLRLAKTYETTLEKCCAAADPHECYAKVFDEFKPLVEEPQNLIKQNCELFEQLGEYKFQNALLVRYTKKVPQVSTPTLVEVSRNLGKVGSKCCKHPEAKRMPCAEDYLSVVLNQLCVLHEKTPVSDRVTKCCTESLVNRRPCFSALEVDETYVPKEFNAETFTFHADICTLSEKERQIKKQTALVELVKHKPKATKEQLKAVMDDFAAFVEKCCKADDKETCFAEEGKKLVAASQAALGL

[5] = example training set of ten molecules
[6] = training set (Goodman & Gilman) or PDR test set

SMILES	% PB [1]	other results
COc1ccc(Cl)cc1C(=O)NCCc1ccc(S(=O)(=O)NC(=O)NC2CCCCC2)cc1 [GLYBURIDE]	99.8%	–
Cc1ccc(C(=O)c2ccc(CC(=O)O)n2C)cc1 [TOLMETIN]	99.6%	–
CCOC(=O)[C@H](CCc1ccccc1)N[C@H]1CCc2ccccc2N(CC(=O)O)C1=O [BENAZEPRIL]	97%	–
O=C1CN=C(c2ccccc2)c2cc(Cl)ccc2N1CC1CC1 [PRAZEPAM]	95.5%	–
CN1C(=O)CN=C(c2ccccc2)c2cc(Cl)ccc21 [DIAZEPAM]	–	Classification [2]: 1 (highly protein bound (>90% bound))
CN1C(=O)C(O)N=C(c2ccccc2)c2cc(Cl)ccc21 (stereo not shown) [TEMAZEPAM]	97.6%	–
O=C(O)c1cc(-c2ccc(F)cc2F)ccc1O [DIFLUNISAL]	99.9%	–
COc1ccc2cc([C@H](C)C(=O)O)ccc2c1 [NAPROXEN]	–	Classification [2]: 1 (highly protein bound (>90% bound))
CC(N)C12CC3CC(CC(C3)C1)C2 (stereo not shown) [RIMANTADINE]	–	Classification [2]: 0 (not highly protein bound (<90% bound)); % Protein Bound [1, 5]: 40.0%
CC(=O)CC(c1ccccc1)c1c(O)c2ccccc2oc1=O (stereo not shown) [WARFARIN]	–	Classification [2]: 1 (highly protein bound (>90% bound))
CC(=O)N1CCN(c2ccc(OCC3COC(Cn4ccnc4)(c4ccc(Cl)cc4Cl)O3)cc2)CC1 (stereo not shown) [KETOCONAZOLE]	99%	–
O=C1Nc2ccc(Cl)cc2C(c2ccccc2)=NC1O (stereo not shown) [OXAZEPAM]	98.8%	–
NCCCC[C@H](N[C@@H](CCc1ccccc1)C(=O)O)C(=O)N1CCC[C@H]1C(=O)O [LISINOPRIL]	–	Classification [2]: 0 (not highly protein bound (<90% bound))
CCOC(=O)C(C)(C)Oc1ccc(Cl)cc1 [CLOFIBRATE]	96.5%	decrease in half-life [3]: 2 fold
O=c1[nH]c2ccccc2n1C1CCN(CCCC(c2ccc(F)cc2)c2ccc(F)cc2)CC1 [PIMOZIDE]	99%	–
CN(C)c1ccc(O)c2c1C[C@H]1C[C@H]3[C@H](N(C)C)C(O)=C(C(N)=O)C(=O)[C@@]3(O)C(O)=C1C2=O [MINOCYCLINE]	–	Classification [2]: 0 (not highly protein bound (<90% bound)); % Protein Bound [1, 5]: 76.0%
O=C(O)C1N=C(c2ccccc2)c2cc(Cl)ccc2NC1=O (stereo not shown) [CLORAZEPATE]	96.9%	–
O=C1CN=C(c2ccccc2)c2cc(Cl)ccc2N1 [NORDAZEPAM]	97.5%	–
COC(=O)[C@H](c1ccccc1Cl)N1CCc2sccc2C1 [clopidogrel]	–	% Protein Bound [1, 6]: 98%
CNCCCC1c2ccccc2C=Cc2ccccc21 [PROTRIPTYLINE]	92%	–
O=C(c1ccccc1)c1ccc2n1CCC2C(=O)O (stereo not shown) [KETOROLAC]	99.2%	–
NS(=O)(=O)c1cc(C(=O)O)c(NCc2ccco2)cc1Cl [FUROSEMIDE]	98.8%	–
CCC(C)n1ncn(-c2ccc(N3CCN(c4ccc(OCC5COC(Cn6cncn6)(c6ccc(Cl)cc6Cl)O5)cc4)CC3)cc2)c1=O (stereo not shown) [ITRACONAZOLE]	99.8%	–
CCOC(=O)C1=C(C)NC(C)=C(C(=O)OC)C1c1cccc(Cl)c1Cl (stereo not shown) [FELODIPINE]	99.6%	–

SMILES	% PB [1]	other results
NS(=O)(=O)c1cc2c(cc1Cl)NCNS2(=O)=O [HYDROCHLOROTHIAZIDE]	–	Classification [2]: 0 (not highly protein bound (<90% bound)); % Protein Bound [1, 5]: 58.0%
CN(C)CCCN1c2ccccc2CCc2ccccc21 [IMIPRAMINE]	90.1%	–
CCc1nc(N)nc(N)c1-c1ccc(Cl)cc1 [PYRIMETHAMINE]	–	Classification [2]: 0 (not highly protein bound (<90% bound)); % Protein Bound [1, 5]: 87.0%; % Protein Bound [1, 6]: 87%
Fc1ccc([C@@H]2CCNC[C@H]2COc2ccc3c(c2)OCO3)cc1 [PAROXETINE]	95%	% Protein Bound [1, 6]: 95%
CCCC(CCC)C(=O)O [Valproic acid]	–	HSA binding site [4]: bind to both HSA Sites I and II
CCOC(=O)C1=C(COCCN)NC(C)=C(C(=O)OC)C1c1ccccc1Cl (stereo not shown) [AMLODIPINE]	93%	–
Cc1cnc(C(=O)NCCc2ccc(S(=O)(=O)NC(=O)NC3CCCCC3)cc2)cn1 [GLIPIZIDE]	98.4%	–
O=C1Nc2ccc(Cl)cc2C(c2ccccc2Cl)=NC1O (stereo not shown) [LORAZEPAM]	91%	–
COCCOC(=O)C1=C(C)NC(C)=C(C(=O)OC(C)C)C1c1cccc([N+](=O)[O-])c1 (stereo not shown) [NIMODIPINE]	98%	–
COc1ccc2cc(CCC(C)=O)ccc2c1 [NABUMETONE]	99%	–
COC(=O)C(C)c1ccc(C(=O)c2cccs2)cc1 (stereo not shown) [suprofen methyl ester]	–	HSA binding site [4]: binds to HSA site I
CCCCNc1cc(C(=O)O)cc(S(N)(=O)=O)c1Oc1ccccc1 [BUMETANIDE]	99%	–
Cc1ccc(-c2nc3ccc(C)cn3c2CC(=O)N(C)C)cc1 [ZOLPIDEM]	92%	–
CC(C(=O)O)c1ccc(-c2ccccc2)c(F)c1 (stereo not shown) [FLURBIPROFEN]	99.5%	Classification [2]: 1 (highly protein bound (>90% bound)); % Protein Bound [1, 5]: 99.5%
CC(C(=O)O)c1ccc(C(=O)c2cccs2)cc1 (stereo not shown) [Suprofen]	–	HSA binding site [4]: binds to HSA site II
CCOC(=O)C1=C(C)NC(C)=C(C(=O)OC)C1c1cccc([N+](=O)[O-])c1 (stereo not shown) [NITRENDIPINE]	98%	–
Clc1cccc(Cl)c1N=C1NCCN1 [CLONIDINE]	–	Classification [2]: 0 (not highly protein bound (<90% bound)); % Protein Bound [1, 5]: 30.0%
COC(=O)C1=C(C)NC(C)=C(C(=O)OC(C)C)C1c1cccc2nonc12 (stereo not shown) [ISRADIPINE]	97%	–
CCN(CC)CCN1C(=O)CN=C(c2ccccc2F)c2cc(Cl)ccc21 [FLURAZEPAM]	96.6%	–
CCc1cccc2c3c([nH]c12)C(CC)(CC(=O)O)OCC3 (stereo not shown) [ETODOLAC]	99.1%	–
CC1=C(CC(=O)O)c2cc(F)ccc2/C1=C\c1ccc([S+](C)[O-])cc1 (stereo not shown)	94%	–
O=c1n(CCCN2CCN(c3cccc(Cl)c3)CC2)nc2ccccn12 [TRAZODONE]	93%	–
CN1C(C(=O)Nc2ccccn2)=C(O)c2ccccc2S1(=O)=O [PIROXICAM]	98.5%	–
COC(=O)C1=C(C)NC(C)=C(C(=O)OCCN(C)Cc2ccccc2)C1c1cccc([N+](=O)[O-])c1 (stereo not shown) [NICARDIPINE]	99%	–
